# Measured values reported in publication PMC7822115 (Viruses, 2020).
# Read-outs that look alike come from different tables or passages of the source.
# Assays:
# [1] = test system: SARS-CoV-2; experiment: microbe, parasite or virus in culture; format: cell-based; details: for EC50: Severe acute respiratory syndrome coronavirus 2, Vero, 48 h, read-out: EC50 (95% CI)
# [2] = in vivo; cited from earlier work
# [3] = in vitro; details: human
# [4] = test system: MERS-CoV; experiment: microbe, parasite or virus in culture; format: cell-based; details: Middle East respiratory syndrome-related coronavirus, Vero, 48 h, read-out: EC50 (95% CI)
# [5] = test system: SARS-CoV-2; experiment: microbe, parasite or virus in culture; format: cell-based
# [6] = test system: Vero cells; details: African green monkey
# [7] = test system: A549/ACE2 cells
# [8] = in vitro; details: African green monkey
Structure (SMILES),SARS-CoV-2 titer after treatment (in words) [1],EC50 [1],Peak human serum concentration [2],CC50 [3],EC50 [4],"EC50 ([5]; Severe acute respiratory syndrome coronavirus 2, A549-ACE2, 48 h, read-out: EC50 (95% CI))",Concentration at which cellular toxicity was observed [6],Cellular viability / toxicity compared to the media control (in words) [7],CC50 [8],Decrease in mean SARS-CoV-2 titer compared to the control [5],SARS-CoV-2 titer after treatment (in words) [5],Concentration at which cellular toxicity was detected ([7]; human),SARS-CoV-2 replication after treatment (in words) [5],SARS-CoV-2 replication after treatment (in words) [1]
"O=C(O)c1cn(C2CC2)c2cc(N3CCNCC3)c(F)cc2c1=O [Ciprofloxacin, ciprofloxacin]",below the level of detection,247 µM,7.2 µM,,,,,,,,,,,
"CCn1cc(C(=O)O)c(=O)c2cc(F)c(N3CCNCC3)nc21 [Enoxacin, enoxacin]",,126 µM,11.2 µM,> 600 µM,343 µM,227 µM,≥ 37.5 µM,not different from the media control,> 600 µM,,,,,
"C[C@H]1COc2c(N3CCN(C)CC3)c(F)cc3c(=O)c(C(=O)O)cn1c23 [Levofloxacin, levofloxacin]",,419 µM,,> 600 µM,,,,,> 600 µM,1.4 log,,,,
"COc1c(N2C[C@@H]3CCCN[C@@H]3C2)c(F)cc2c(=O)c(C(=O)O)cn(C3CC3)c12 [Moxifloxacin, moxifloxacin]",below the level of detection,240 µM,8.6 µM,> 600 µM,,,≥ 300 µM,,> 600 µM,2.2 log,below the level of detection,≥ 300 µM,,
O=C(Nc1ccc([N+](=O)[O-])cc1Cl)c1cc(Cl)ccc1O [niclosamide],,,,,,,,,,,,,below the level of detection,below the level of detection
